Experiment [1] relates to T1, ORF132.
T1 construct: full-length ORF, 146 residues; N-terminal Strep-tag, codon-optimised synthetic gene in pET22b(+); E. coli BL21(DE3); StrepTrap purified
The experiment can be described thus: isocitrate dehydrogenase activity assay kit, absorbance […] nm, NADH standard curve, Michaelis-Menten fit. The experiment is classed as biochemical, Pandoravirus massiliensis. As to conditions: 37 °C, 100 µL, kit buffer; NAD+ or NADP+ co-substrate not specified; varied substrate implied to be isocitrate.

Experiment [2] relates to T2, human IDH.
T2 construct: gene IDH1
The following applies: 37 °C, 100 µL, kit buffer; NAD+ or NADP+ co-substrate not specified; varied substrate implied to be isocitrate.

On to `O=C(O)C[C@H](C(=O)O)[C@@H](O)C(=O)O` [isocitrate], for which the Km (in general, the substrate concentration at which the rate is half of its maximum) in experiment [1] came out at 51.8 µM; in experiment [2] it was 585 µM.

For the origin of these results see paper PMC8857278, “Incomplete tricarboxylic acid cycle and proton gradient in Pandoravirus massiliensis: is it still a virus?” (The ISME Journal, 2021).
